Test results published in patent US8597875B2, “Method for diagnosing liver toxicity with sex specific biomarkers” (BASF SE, priority 2008, dated 2013).

How the values were obtained:
female rats = assay: Plasma metabolite profiling (GC-MS/LC-MS) for liver toxicity markers, 28-day gavage study, female rats; assay type: in vivo, rat
Procedure: (§1) A group of each 5 male and female rats was dosed once daily with the indicated compounds (see tables below) at 10 and 100 mg/kg body weight per gavage over 28 days. Additional groups of each 5 male and female animals served as controls. Before starting the treatment period, animals, which were 62-64 days old when supplied, were acclimatized to the housing and environmental conditions for 7 days. All animals of the animal population were kept under the same constant temperature (20-24±3° C.) and the same constant humidity (30-70%). Each animal of the animal population was kept in a separate cage. The animals of the animal population are fed ad libitum. The food to be used was be essentially free of chemical or microbial contaminants. Drinking water was also offered ad libitum. Accordingly, the water was be free of chemical and microbial contaminants as laid down in the European Drinking Water Directive 98/83/EG. The illumination period was 12 hours light followed by 12 hours darkness (12 hours light, from 6:00 to 18:00, and 12 hours darkness, from 18:00 to 6:00).
(§2) In the morning of day 7, 14, and 28, blood was taken from the retroorbital venous plexus from fasted anaesthetized animals. From each animal, 1 ml of blood was collected with EDTA as anticoagulant. The samples were be centrifuged for generation of plasma. All plasma samples were covered with a N2 atmosphere and then stored at −80° C. until analysis.
(§3) For mass spectrometry-based metabolite profiling analyses plasma samples were extracted and a polar and a non-polar fraction was obtained. For GC-MS analysis, the non-polar fraction was treated with methanol under acidic conditions to yield the fatty acid methyl esters. Both fractions were further derivatised with O-methyl-hydroxyamine hydrochloride and pyridine to convert Oxo-groups to O-methyloximes and subsequently with a silylating agent before analysis. In LC-MS analysis, both fractions were reconstituted in appropriate solvent mixtures. HPLC was performed by gradient elution on reversed phase separation columns. For mass spectrometric detection metanomics proprietary technology was applied which allows target and high sensitivity MRM (Multiple Reaction Monitoring) profiling in parallel to a full screen analysis.
(§4) Following comprehensive analytical validation steps, the data for each analyte were normalized against data from pool samples. These samples were run in parallel through the whole process to account for process variability. The significance of treatment group values specific for sex, dose group and metabolite was determined by comparing means of the treated groups to the means of the respective untreated control groups using WELCH-test. Normalized treatment group values and their significance were fed into a database for further statistics and data mining processes.
(§5) The changes of the group of plasma metabolites being indicative for liver toxicity after treatment of the rats are shown in the following tables: […]

male rats = assay: Plasma metabolite profiling (GC-MS/LC-MS) for liver toxicity markers, 28-day gavage study, male rats; assay type: in vivo, rat
Procedure: as §1, §2, §3, §4, §5

[1] = Table 4, female rats, fh7 (day 7)
[2] = Table 4, female rats, fh14 (day 14)
[3] = Table 4, female rats, fh28 (day 28)
[4] = Table 3, male rats, mh7 (day 7)
[5] = Table 3, male rats, mh14 (day 14)

## CC(=O)Nc1ccc(O)cc1 [N-Acetyl-p-Aminophenol]
Female rats; [1]
  Behenic acid (C22:0), change of plasma metabolite: 1.11
  Coenzyme Q9, change of plasma metabolite: 2.21
  Eicosatrienoic acid No 01, change of plasma metabolite: 1.15
  Glycerol, lipid fraction, change of plasma metabolite: 1.54
  Glycerolphosphate, lipid fraction, change of plasma metabolite: 1.13
  Heptadecanoic acid (C17:0), change of plasma metabolite: 1.31
  Linoleic acid (C18:cis[9,12]2), change of plasma metabolite: 1.43
  Nervonic acid (C24:1), change of plasma metabolite: 1.19
  Palmitic acid (C16:0), change of plasma metabolite: 1.16
  Phosphatidylcholine No 01, change of plasma metabolite: 1.30
  Sphingolipids (5-Methoxysphingosine), change of plasma metabolite: 1.31
  Sphingolipids (erythro-Sphingosine), change of plasma metabolite: 1.11
Female rats; [2]
  14-Methylhexadecanoic acid, change of plasma metabolite: 1.20
  Behenic acid (C22:0), change of plasma metabolite: 1.39
  Coenzyme Q9, change of plasma metabolite: 1.39
  DAG (C18:1, C18:2), change of plasma metabolite: 1.63
  Eicosatrienoic acid No 01, change of plasma metabolite: 1.91
  Glycerol, lipid fraction, change of plasma metabolite: 1.56
  Heptadecanoic acid (C17:0), change of plasma metabolite: 1.34
  Linoleic acid (C18:cis[9,12]2), change of plasma metabolite: 1.82
  Nervonic acid (C24:1), change of plasma metabolite: 1.35
  Palmitic acid (C16:0), change of plasma metabolite: 1.50
  Phosphatidylcholine No 01, change of plasma metabolite: 1.34
  Sphingolipids (5-Methoxysphingosine), change of plasma metabolite: 1.41
  Sphingolipids (erythro-Sphingosine), change of plasma metabolite: 1.29
  TAG No 01, change of plasma metabolite: 2.93
Female rats; [3]
  14-Methylhexadecanoic acid, change of plasma metabolite: 1.68
  Coenzyme Q9, change of plasma metabolite: 1.19
  DAG (C18:1, C18:2), change of plasma metabolite: 1.86
  Eicosanoic acid (C20:0), change of plasma metabolite: 1.73
  Eicosatrienoic acid No 01, change of plasma metabolite: 2.08
  Glycerol, lipid fraction, change of plasma metabolite: 2.04
  Glycerolphosphate, lipid fraction, change of plasma metabolite: 1.82
  Heptadecanoic acid (C17:0), change of plasma metabolite: 1.64
  Linoleic acid (C18:cis[9,12]2), change of plasma metabolite: 2.68
  Palmitic acid (C16:0), change of plasma metabolite: 2.03
  TAG No 01, change of plasma metabolite: 3.85
Female rats; Table 4, first listing (r8), female rats, fh7 (day 7)
  Glycerol-3-Phosphate, polar fraction, change of plasma metabolite: 1.68
Female rats; Table 4, first listing (r8), female rats, fh14 (day 14)
  Glycerol-3-Phosphate, polar fraction, change of plasma metabolite: 1.18
Female rats; Table 4, first listing (r10), female rats, fh7 (day 7)
  Glucose, change of plasma metabolite: 1.25
Female rats; Table 4, first listing (r10), female rats, fh28 (day 28)
  Glucose, change of plasma metabolite: 1.17
Female rats; Table 4, first listing (r14), female rats, fh28 (day 28)
  Cholesterol, change of plasma metabolite: 1.41
Female rats; Table 4, second listing (r26), female rats, fh7 (day 7)
  Cholesterol, change of plasma metabolite: 1.21
Female rats; Table 4, second listing (r26), female rats, fh14 (day 14)
  Cholesterol, change of plasma metabolite: 1.42
Female rats; Table 4, second listing (r26), female rats, fh28 (day 28)
  Cholesterol, change of plasma metabolite: 1.74
Female rats; Table 4, second listing (r27), female rats, fh28 (day 28)
  Glucose, change of plasma metabolite: 1.04
Female rats; Table 4, second listing (r28), female rats, fh7 (day 7)
  Glycerol-3-Phosphate, polar fraction, change of plasma metabolite: 1.93
Female rats; Table 4, second listing (r28), female rats, fh14 (day 14)
  Glycerol-3-Phosphate, polar fraction, change of plasma metabolite: 1.35
Female rats; Table 4, second listing (r28), female rats, fh28 (day 28)
  Glycerol-3-Phosphate, polar fraction, change of plasma metabolite: 1.20
Male rats; [4]
  4-Hydroxyphenylpyruvic acid, change of plasma metabolite: 3.04
  18:1 Lyso PC, change of plasma metabolite: 1.02
  Glycerol-3-Phosphate, polar fraction, change of plasma metabolite: 1.41
  alpha-Tocopherol, change of plasma metabolite: 1.21
Male rats; [5]
  4-Hydroxyphenylpyruvic acid, change of plasma metabolite: 4.89
  4-Hydroxysphinganine, change of plasma metabolite: 1.61
  18:1 Lyso PC, change of plasma metabolite: 1.16
  Glycerol-3-Phosphate, polar fraction, change of plasma metabolite: 1.54
  Phosphatidylcholine No 01, change of plasma metabolite: 1.21

## C1CCOC1 [Tetrahydrofuran]
Female rats; female rats, fh7 (day 7)
  1,2-Dioleoyl-sn-glycero-3-phosphatidyl-L-serine, change of plasma metabolite: 1.49
  4-Hydroxysphinganine, change of plasma metabolite: 1.98
  Arachidonic acid (C20:cis-[5,8,11,14]4), change of plasma metabolite: 1.85
  Behenic acid (C22:0), change of plasma metabolite: 1.52
  Ceramide (d18:1, C24:0), change of plasma metabolite: 1.85
  Cholesterol, change of plasma metabolite: 2.18
  Docosahexaenoic acid (C22:cis[4,7,10,13,16,19]6), change of plasma metabolite: 3.22
  Glycerol, lipid fraction, change of plasma metabolite: 1.89
  Glycerolphosphate, lipid fraction, change of plasma metabolite: 1.77
  Heptadecanoic acid (C17:0), change of plasma metabolite: 1.72
  ID28x493, change of plasma metabolite: 2.44
  Lignoceric acid (C24:0), change of plasma metabolite: 1.59
  Linoleic acid (C18:cis[9,12]2), change of plasma metabolite: 2.43
  Nervonic acid (C24:1), change of plasma metabolite: 1.54
  Palmitic acid (C16:0), change of plasma metabolite: 1.97
  Phosphate, lipid (Phospholipids), change of plasma metabolite: 1.37
  Stearic acid (C18:0), change of plasma metabolite: 1.60
  TAG No 1, change of plasma metabolite: 1.66
  Threonic acid, change of plasma metabolite: 1.92
  Tricosanoic acid (C23:0), change of plasma metabolite: 1.80
Male rats; male rats, mh7 (day 7)
  1,2-Dioleoyl-sn-glycero-3-phosphatidyl-L-serine, change of plasma metabolite: 1.70
  4-Hydroxysphingosine, change of plasma metabolite: 2.67
  Arachidonic acid (C20:cis-[5,8,11,14]4), change of plasma metabolite: 1.71
  Behenic acid (C22:0), change of plasma metabolite: 1.35
  Ceramide (d18:1, C24:0), change of plasma metabolite: 1.37
  Ceramide (d18:1, C24:1), change of plasma metabolite: 1.53
  Cholesterol, change of plasma metabolite: 1.81
  Docosahexaenoic acid (C22:cis[4,7,10,13,16,19]6), change of plasma metabolite: 2.52
  Eicosatrienoic acid, change of plasma metabolite: 3.13
  Glycerolphosphate, lipid fraction, change of plasma metabolite: 1.94
  Heptadecanoic acid (C17:0), change of plasma metabolite: 1.52
  Lignoceric acid (C24:0), change of plasma metabolite: 1.62
  Linoleic acid (C18:cis[9,12]2), change of plasma metabolite: 1.52
  Nervonic acid (C24:1), change of plasma metabolite: 1.88
  Palmitic acid (C16:0), change of plasma metabolite: 1.48
  Phosphatidylcholine (C18:0/C22:6), change of plasma metabolite: 1.83
  Phosphatidylcholine (C18:2, C20:4), change of plasma metabolite: 1.52
  Sphingomyelin (d18:1, C16:0), change of plasma metabolite: 1.46
  Tricosanoic acid (C23:0), change of plasma metabolite: 1.51
  alpha-Tocopherol, change of plasma metabolite: 2.61
  myo-Inositol-2-monophosphate, lipid fraction, change of plasma metabolite: 1.70
Male rats; male rats, mh14 (day 14)
  1,2-Dioleoyl-sn-glycero-3-phosphatidyl-L-serine, change of plasma metabolite: 1.81
  4-Hydroxysphingosine, change of plasma metabolite: 2.56
  Arachidonic acid (C20:cis-[5,8,11,14]4), change of plasma metabolite: 1.64
  Behenic acid (C22:0), change of plasma metabolite: 1.77
  Ceramide (d18:1, C24:0), change of plasma metabolite: 1.55
  Ceramide (d18:1, C24:1), change of plasma metabolite: 1.48
  Cholesterol, change of plasma metabolite: 1.98
  Docosahexaenoic acid (C22:cis[4,7,10,13,16,19]6), change of plasma metabolite: 2.37
  Eicosatrienoic acid, change of plasma metabolite: 3.76
  Glycerolphosphate, lipid fraction, change of plasma metabolite: 1.93
  Heptadecanoic acid (C17:0), change of plasma metabolite: 1.54
  Lignoceric acid (C24:0), change of plasma metabolite: 1.71
  Linoleic acid (C18:cis[9,12]2), change of plasma metabolite: 1.46
  Nervonic acid (C24:1), change of plasma metabolite: 1.87
  Palmitic acid (C16:0), change of plasma metabolite: 1.49
  Phosphatidylcholine (C18:0/C22:6), change of plasma metabolite: 1.71
  Phosphatidylcholine (C18:2, C20:4), change of plasma metabolite: 1.46
  Sphingomyelin (d18:1, C16:0), change of plasma metabolite: 1.45
  Tricosanoic acid (C23:0), change of plasma metabolite: 1.74
  alpha-Tocopherol, change of plasma metabolite: 2.23
  myo-Inositol-2-monophosphate, lipid fraction, change of plasma metabolite: 2.40
Male rats; male rats, mh28 (day 28)
  1,2-Dioleoyl-sn-glycero-3-phosphatidyl-L-serine, change of plasma metabolite: 1.84
  4-Hydroxysphingosine, change of plasma metabolite: 2.64
  Arachidonic acid (C20:cis-[5,8,11,14]4), change of plasma metabolite: 1.76
  Behenic acid (C22:0), change of plasma metabolite: 1.65
  Ceramide (d18:1, C24:0), change of plasma metabolite: 1.40
  Ceramide (d18:1, C24:1), change of plasma metabolite: 1.18
  Cholesterol, change of plasma metabolite: 2.03
  Docosahexaenoic acid (C22:cis[4,7,10,13,16,19]6), change of plasma metabolite: 2.02
  Eicosatrienoic acid, change of plasma metabolite: 3.77
  Glycerolphosphate, lipid fraction, change of plasma metabolite: 2.15
  Heptadecanoic acid (C17:0), change of plasma metabolite: 1.51
  Lignoceric acid (C24:0), change of plasma metabolite: 1.57
  Linoleic acid (C18:cis[9,12]2), change of plasma metabolite: 1.50
  Nervonic acid (C24:1), change of plasma metabolite: 1.97
  Palmitic acid (C16:0), change of plasma metabolite: 1.36
  Phosphatidylcholine (C18:0/C22:6), change of plasma metabolite: 1.32
  Phosphatidylcholine (C18:2, C20:4), change of plasma metabolite: 1.18
  Sphingomyelin (d18:1, C16:0), change of plasma metabolite: 1.39
  Tricosanoic acid (C23:0), change of plasma metabolite: 1.55
  alpha-Tocopherol, change of plasma metabolite: 2.15
  myo-Inositol-2-monophosphate, lipid fraction, change of plasma metabolite: 2.70
